Experimental data reported in patent US20260262643A1, “HERBICIDAL BENZOXAZINES” (FMC CORPORATION, priority 2022, published 2026).

How the values were obtained:
green foxtail = experiment: Test C preemergence; assay type: in vivo, Setaria viridis; settings: 0 to 100 scale (0 no effect, 100 complete control); for Plant response rating, Foxtail, Green: Preemergence, 500 g ai/ha, visual rating after 10 days; for Foxtail, Green plant response rating: Test C, preemergence, 125 g ai/ha
Summary of the method: (§1)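 Seeds in loam–sand blend received preemergence directed soil spray of test chemicals in non-phytotoxic solvent with surfactant; postemergence treatment was applied at one- to two-leaf stage (2–10 cm). After 10 days in greenhouse, injury rated visually versus untreated controls, 0 (no effect) to 100 (complete control).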

ryegrass, Italian [1] = experiment: Test C preemergence; assay type: in vivo, Lolium multiflorum; settings: 0 to 100 scale (0 no effect, 100 complete control); for Plant response rating, Ryegrass, Italian: Preemergence, 500 g ai/ha, visual rating after 10 days; for Ryegrass, Italian plant response rating: Test C, preemergence, 125 g ai/ha
Summary of the method: as §1

horseweed = experiment: Test C postemergence; assay type: in vivo, Erigeron canadensis; settings: 10 days
Summary of the method: as §1

wheat [2] = experiment: Test C preemergence; assay type: in vivo, Triticum aestivum; settings: 0 to 100 scale (0 no effect, 100 complete control); for Plant response rating, Wheat: Preemergence, 500 g ai/ha, visual rating after 10 days; for Wheat plant response rating: Test C, preemergence, 125 g ai/ha
Summary of the method: as §1

kochia [3] = experiment: Test C postemergence; assay type: in vivo, Bassia scoparia; settings: 10 days
Summary of the method: as §1

barnyardgrass [4] = experiment: Test D flooded paddy test; assay type: in vivo, Echinochloa crus-galli; settings: 250 g ai/ha, applied to paddy water, visual rating after 13 to 14 days, scale 0 to 100 (0 no effect, 100 complete control)
Method: (§2) Plant species in the flooded paddy test selected from barnyardgrass (Echinochloa crus-galli), ducksalad (Heteranthera limosa), rice (Oryza sativa), and sedge, umbrella (small-flower umbrella sedge, Cyperus difformis) were grown to the 2-leaf stage for testing. At time of treatment, test pots were flooded to 3 cm above the soil surface, treated by application of test compounds directly to the paddy water, and then maintained at that water depth for the duration of the test. Treated plants and controls were maintained in a greenhouse for 13 to 14 days, after which time all species were compared to controls and visually evaluated. Plant response ratings, summarized in Table D, are based on a scale of 0 to 100 where 0 is no effect and 100 is complete control. A dash (-) response means no test result.

blackgrass [5] = experiment: Test C preemergence; assay type: in vivo, Alopecurus myosuroides; settings: 0 to 100 scale (0 no effect, 100 complete control); for Plant response rating, Blackgrass: Preemergence, 500 g ai/ha, visual rating after 10 days; for Blackgrass plant response rating: Test C, preemergence, 125 g ai/ha
Summary of the method: as §1

corn [6] = experiment: Test C preemergence; assay type: in vivo, Zea mays; settings: 0 to 100 scale (0 no effect, 100 complete control); for Plant response rating, Corn: Preemergence, 500 g ai/ha, visual rating after 10 days; for Corn plant response rating: Test C, preemergence, 125 g ai/ha
Summary of the method: as §1

sedge, umbrella = experiment: Test D flooded paddy test; assay type: in vivo, Cyperus difformis; settings: 250 g ai/ha, applied to paddy water, visual rating after 13 to 14 days, scale 0 to 100 (0 no effect, 100 complete control)
Method: as §2

soybean [7] = experiment: Test C postemergence; assay type: in vivo, Glycine max; settings: 10 days
Summary of the method: as §1

ragweed [8] = experiment: Test C postemergence; assay type: in vivo, Ambrosia artemisiifolia; settings: 10 days
Summary of the method: as §1

barnyardgrass [9] = experiment: Test C postemergence; assay type: in vivo, Echinochloa crusgalli; settings: 10 days
Summary of the method: as §1

corn [10] = experiment: Test C postemergence; assay type: in vivo, Zea mays; settings: 10 days
Summary of the method: as §1

oat, wild [11] = experiment: Test C postemergence; assay type: in vivo, Avena fatua; settings: 10 days
Summary of the method: as §1

rice = experiment: Test D flooded paddy test; assay type: in vivo, Oryza sativa; settings: 250 g ai/ha, applied to paddy water, visual rating after 13 to 14 days, scale 0 to 100 (0 no effect, 100 complete control)
Method: as §2

kochia [12] = experiment: Test C preemergence; assay type: in vivo, Bassia scoparia; settings: 0 to 100 scale (0 no effect, 100 complete control); for Plant response rating, Kochia: Preemergence, 500 g ai/ha, visual rating after 10 days; for Kochia plant response rating: Test C, preemergence, 125 g ai/ha
Summary of the method: as §1

ryegrass, Italian [13] = experiment: Test C postemergence; assay type: in vivo, Lolium multiflorum; settings: 10 days
Summary of the method: as §1

pigweed, palmer [14] = experiment: Test C preemergence; assay type: in vivo, Amaranthus palmeri; settings: 0 to 100 scale (0 no effect, 100 complete control); for Plant response rating, Pigweed, Palmer: Preemergence, 500 g ai/ha, visual rating after 10 days; for Pigweed, Palmer plant response rating: Test C, preemergence, 125 g ai/ha
Summary of the method: as §1

ducksalad = experiment: Test D flooded paddy test; assay type: in vivo, Heteranthera limosa; settings: 250 g ai/ha, applied to paddy water, visual rating after 13 to 14 days, scale 0 to 100 (0 no effect, 100 complete control)
Method: as §2

galium = experiment: Test C postemergence; assay type: in vivo, Galium aparine; settings: 10 days
Summary of the method: as §1

oat, wild [15] = experiment: Test C preemergence; assay type: in vivo, Avena fatua; settings: 0 to 100 scale (0 no effect, 100 complete control); for Plant response rating, Oat, Wild: Preemergence, 500 g ai/ha, visual rating after 10 days; for Oat, Wild plant response rating: Test C, preemergence, 125 g ai/ha
Summary of the method: as §1

barnyardgrass [16] = experiment: Test C preemergence; assay type: in vivo, Echinochloa crusgalli; settings: 0 to 100 scale (0 no effect, 100 complete control); for Plant response rating, Barnyardgrass: Preemergence, 500 g ai/ha, visual rating after 10 days; for Barnyardgrass plant response rating: Test C, preemergence, 125 g ai/ha
Summary of the method: as §1

pigweed, palmer [17] = experiment: Test C postemergence; assay type: in vivo, Amaranthus palmeri; settings: 10 days
Summary of the method: as §1

ragweed [18] = experiment: Test C preemergence; assay type: in vivo, Ambrosia artemisiifolia; settings: 0 to 100 scale (0 no effect, 100 complete control); for Plant response rating, Ragweed: Preemergence, 500 g ai/ha, visual rating after 10 days; for Ragweed plant response rating: Test C, preemergence, 125 g ai/ha
Summary of the method: as §1

soybean [19] = experiment: Test C preemergence; assay type: in vivo, Glycine max; settings: 0 to 100 scale (0 no effect, 100 complete control); for Plant response rating, Soybean: Preemergence, 500 g ai/ha, visual rating after 10 days; for Soybean plant response rating: Test C, preemergence, 125 g ai/ha
Summary of the method: as §1

blackgrass [20] = experiment: Test C postemergence; assay type: in vivo, Alopecurus myosuroides; settings: 10 days
Summary of the method: as §1

wheat [21] = experiment: Test C postemergence; assay type: in vivo, Triticum aestivum; settings: 10 days
Summary of the method: as §1

[22] = 125 g ai/ha, postemergence, 0 to 100 scale, 0 no effect, 100 complete control
[23] = Postemergence, 500 g ai/ha, visual 0 to 100 scale (0 no effect, 100 complete control)

Cc1ccc(-n2cnc(C(C)(C)O)n2)cc1C(=O)N1C[C@H](C)Oc2c(C)cccc21 [Compound 256]
Plant response rating, Foxtail, Green (green foxtail): 100 | Foxtail, Green plant response rating (green foxtail): 100 | Plant response rating, Ryegrass, Italian (ryegrass, Italian [1]): 100 | Ryegrass, Italian plant response rating (ryegrass, Italian [1]): 90 | Plant response rating, Horseweed (horseweed; [22]): 30 | Plant response rating, Horseweed (horseweed; [23]): 40 | Plant response rating, Wheat (wheat [2]): 90 | Wheat plant response rating (wheat [2]): 80 | Plant response rating, Kochia (kochia [3]; [22]): 60 | Plant response rating, Kochia (kochia [3]; [23]): 80 | Plant response rating, Barnyardgrass (Flood) (barnyardgrass [4]): 45 | Plant response rating, Blackgrass (blackgrass [5]): 90 | Blackgrass plant response rating (blackgrass [5]): 70 | Plant response rating, Corn (corn [6]): 90 | Corn plant response rating (corn [6]): 50 | Plant response rating, Sedge, Umbrella (Flood) (sedge, umbrella): 98 | Plant response rating, Soybean (soybean [7]; [22]): 100 | Plant response rating, Soybean (soybean [7]; [23]): 100 | Plant response rating, Ragweed (ragweed [8]; [22]): 70 | Plant response rating, Ragweed (ragweed [8]; [23]): 80 | Plant response rating, Barnyardgrass (barnyardgrass [9]; [22]): 60 | Plant response rating, Barnyardgrass (barnyardgrass [9]; [23]): 90 | Plant response rating, Corn (corn [10]; [22]): 90 | Plant response rating, Corn (corn [10]; [23]): 90 | Plant response rating, Oat, Wild (oat, wild [11]; [22]): 90 | Plant response rating, Oat, Wild (oat, wild [11]; [23]): 90 | Plant response rating, Rice (Flood) (rice): 35 | Plant response rating, Kochia (kochia [12]): 90 | Kochia plant response rating (kochia [12]): 80 | Plant response rating, Ryegrass, Italian (ryegrass, Italian [13]; [22]): 90 | Plant response rating, Ryegrass, Italian (ryegrass, Italian [13]; [23]): 100 | Plant response rating, Pigweed, Palmer (pigweed, palmer [14]): 100 | Pigweed, Palmer plant response rating (pigweed, palmer [14]): 100 | Plant response rating, Ducksalad (Flood) (ducksalad): 98 | Plant response rating, Galium (galium; [22]): 100 | Plant response rating, Galium (galium; [23]): 100 | Plant response rating, Oat, Wild (oat, wild [15]): 90 | Oat, Wild plant response rating (oat, wild [15]): 90 | Plant response rating, Barnyardgrass (barnyardgrass [16]): 100 | Barnyardgrass plant response rating (barnyardgrass [16]): 100 | Plant response rating, Pigweed, Palmer (pigweed, palmer [17]; [22]): 80 | Plant response rating, Pigweed, Palmer (pigweed, palmer [17]; [23]): 100 | Plant response rating, Ragweed (ragweed [18]): 90 | Ragweed plant response rating (ragweed [18]): 70 | Plant response rating, Soybean (soybean [19]): 90 | Soybean plant response rating (soybean [19]): 100 | Plant response rating, Blackgrass (blackgrass [20]; [22]): 90 | Plant response rating, Blackgrass (blackgrass [20]; [23]): 90 | Plant response rating, Wheat (wheat [21]; [22]): 80 | Plant response rating, Wheat (wheat [21]; [23]): 90

COc1ccc(-n2cnc(C(C)(C)O)n2)cc1C(=O)N1C[C@H](C)Oc2c(Cl)cccc21 [Compound 254]
Plant response rating, Foxtail, Green (green foxtail): 100 | Foxtail, Green plant response rating (green foxtail): 100 | Plant response rating, Ryegrass, Italian (ryegrass, Italian [1]): 90 | Ryegrass, Italian plant response rating (ryegrass, Italian [1]): 90 | Plant response rating, Horseweed (horseweed; [22]): 30 | Plant response rating, Horseweed (horseweed; [23]): 20 | Plant response rating, Wheat (wheat [2]): 90 | Wheat plant response rating (wheat [2]): 70 | Plant response rating, Kochia (kochia [3]; [22]): 80 | Plant response rating, Kochia (kochia [3]; [23]): 90 | Plant response rating, Barnyardgrass (Flood) (barnyardgrass [4]): 25 | Plant response rating, Blackgrass (blackgrass [5]): 80 | Blackgrass plant response rating (blackgrass [5]): 40 | Plant response rating, Corn (corn [6]): 50 | Corn plant response rating (corn [6]): 50 | Plant response rating, Sedge, Umbrella (Flood) (sedge, umbrella): 98 | Plant response rating, Soybean (soybean [7]; [22]): 100 | Plant response rating, Soybean (soybean [7]; [23]): 100 | Plant response rating, Ragweed (ragweed [8]; [22]): 90 | Plant response rating, Ragweed (ragweed [8]; [23]): 100 | Plant response rating, Barnyardgrass (barnyardgrass [9]; [22]): 50 | Plant response rating, Barnyardgrass (barnyardgrass [9]; [23]): 80 | Plant response rating, Corn (corn [10]; [22]): 80 | Plant response rating, Corn (corn [10]; [23]): 90 | Plant response rating, Oat, Wild (oat, wild [11]; [22]): 80 | Plant response rating, Oat, Wild (oat, wild [11]; [23]): 90 | Plant response rating, Rice (Flood) (rice): 20 | Plant response rating, Kochia (kochia [12]): 90 | Kochia plant response rating (kochia [12]): 90 | Plant response rating, Ryegrass, Italian (ryegrass, Italian [13]; [22]): 70 | Plant response rating, Ryegrass, Italian (ryegrass, Italian [13]; [23]): 80 | Plant response rating, Pigweed, Palmer (pigweed, palmer [14]): 100 | Pigweed, Palmer plant response rating (pigweed, palmer [14]): 100 | Plant response rating, Ducksalad (Flood) (ducksalad): 98 | Plant response rating, Galium (galium; [22]): 100 | Plant response rating, Galium (galium; [23]): 100 | Plant response rating, Oat, Wild (oat, wild [15]): 90 | Oat, Wild plant response rating (oat, wild [15]): 90 | Plant response rating, Barnyardgrass (barnyardgrass [16]): 100 | Barnyardgrass plant response rating (barnyardgrass [16]): 70 | Plant response rating, Pigweed, Palmer (pigweed, palmer [17]; [22]): 90 | Plant response rating, Pigweed, Palmer (pigweed, palmer [17]; [23]): 100 | Plant response rating, Ragweed (ragweed [18]): 90 | Ragweed plant response rating (ragweed [18]): 80 | Plant response rating, Soybean (soybean [19]): 100 | Soybean plant response rating (soybean [19]): 100 | Plant response rating, Blackgrass (blackgrass [20]; [22]): 80 | Plant response rating, Blackgrass (blackgrass [20]; [23]): 90 | Plant response rating, Wheat (wheat [21]; [22]): 50 | Plant response rating, Wheat (wheat [21]; [23]): 80
